Source: US8329141B2, “Locoregional internal radionuclide ablation of abnormal tissues” (Board of Regents, The University of Texas System, priority 2004, dated 2012)

Key:
[1] = intravenous (Hirano et al. 1993); cited from earlier work
[2] = In vivo local sequestration at the injection site by serial scintigrams (intramuscular or intratumoral injection); set-up: species or system Fischer rats
Description: To further study the localization of unsealed radiopharmaceuticals after injection, in vivo imaging studies were carried out comparing ^111In DTPA (In-DTPA) (negative control) and Indium-111-Iron Macroaggregate (^111In-IMA) (positive control) to ^111In—Cl. ^111In emits gamma rays that can be detected using a gamma camera. ^111In-IMA was generated according to methods disclosed in U.S. Ser. No. 10/724,027, incorporated herein by reference. Each radiopharmaceutical was administered by intramuscular injection into the thigh muscle of Fischer rats which weighed approximately 200 grams. Two different doses of ^111In—Cl were administered to the rats, 0.4 and 0.8 mCi in 0.2 ml saline. Distribution of the ^111In—Cl was determined through serial scintigrams. […] In comparison, when ^111In-IMA was administered to rats, consistent retention (84%) of the ^111In-IMA was found 70 hours after administration (FIG. 8). Persistent intramuscular localization of ^111In—Cl was also found in rats for both dose levels of ^111In—Cl, with over 50% of the injected ^111In—Cl remaining in the injection site after three days.
To investigate whether the addition of free iron to radionuclides would increase the locoregional retention of various radionuclides, admixtures of ^67Ga-citrate, YCl3, or ^111In—Cl, were prepared with FeCl3.6H2O at 1-5 mg Fe/ml. Each radionuclide combination/admixture was administered either by intramuscular (IM) injection into the thigh muscle of the left leg (0.1-1.0 mCi) or by intratumoral (IT) injection into a tumor in the right leg (0.4-5.0 mCi) of Fischer rats. Distribution of the radionuclide was determined through serial scintigrams. Whole body images were acquired with a Siemens M-CAM camera using respective photo peaks of Ga-67, Tl-201 (for Y-90), or In-111, and 15-20% windows in photo energy. The typical imaging time was 0.5 to 5 minutes. A respective standard was present in the field of view (0.1-0.5 mCi), and used for image quantification by comparing images with the standard and normalizing the initial injection time as 100%. The Fe content in each combination/admixture was 1 mg in the total injectate.

serum proteins = test: Binding to serum proteins (Centrifree filter separation); format: in vitro ADME, human (patients); conditions: 0.2, 0.5 or 1 μCi added to diluted serum protein, 20 minutes; physiologic range, all concentrations tested
Description: To test the hypothesis that local sequestration of ^111In—Cl is due to protein binding, both ^111In—Cl and YCl3 were tested for binding to CSF and serum proteins. Serum proteins were obtained from residual baseline serum and CSF proteins were obtained from patients participating in other research protocols who had consented to blood sampling. To determine the level of ^111In—Cl protein binding, 0.2, 0.5, or 1 μCi of ^111In—Cl was added to diluted CSF (0.125 or 0.5) or diluted serum protein (0.125 and 0.25) and incubated for 20 minutes. To determine the level of YCl3 protein binding, 0.2, 0.5, or 1 μCi of YCl3 was added to diluted CSF (0.063 or 0.5) or diluted serum protein (0.063 and 0.375), and incubated for 20 minutes. After incubation, free radiopharmaceuticals were separated from protein bound ^111In—Cl or YCl3 using Amicon Centrifree Micropartition filters in a single centrifugation step at 3000 g for 15 minutes according to manufacturer's instructions (Amicon, Beverly, Mass.). The percent binding of YCl3 or ^111In—Cl to the CSF or serum protein was then calculated. As shown in FIG. 6 and FIG. 7 respectively, both YCl3 and ^111In—Cl bind avidly to CSF and serum protein within the physiologic range (a dilution factor between 0.2 and 0.6) at all concentrations tested. At room temperature, both YCl3 and ^111In—Cl have greater than 95% binding to serum proteins. […]

[3] = Biodistribution and projected human radiation dosimetry after intravenous or intramuscular injection; format: in vivo, female Fisher rats; conditions: for human dosimetry estimate, kidney / human dosimetry estimate, red marrow: from rat biodistribution
Description: To evaluate the radiation toxicity of YCl3 after intravenous or intramuscular injection, parallel experiments were performed to evaluate the biodistribution and projected human radiation dosimetry of both ^111In—Cl and YCl3. The experiments used three female Fisher rats (140-160 grams) for each set of injections. Each rat was injected intravenously, or was injected intramuscularly in the right thigh, with 0.05 mCi of YCl3 or ^111In—Cl (with no carrier added) in 0.1 ml saline (pH 5-6). The effect of initial exposure of the radiopharmaceuticals to interstitial fluid was estimated by serum protein binding experiments using Millipore Centrifree filters as set forth in Example 2. Organs including the right and left femur, as well as the right and left thigh muscles, were harvested from each rat 7 days after injection. Human dosimetry for each radiopharmaceutical was constructed using established anthropomorphic models.

CSF proteins = test: Binding to CSF proteins (Centrifree filter separation); format: in vitro ADME, human (patients); conditions: 0.2, 0.5 or 1 μCi added to diluted CSF, 20 minutes; physiologic range, all concentrations tested
Description: To test the hypothesis that local sequestration of ^111In—Cl is due to protein binding, both ^111In—Cl and YCl3 were tested for binding to CSF and serum proteins. Serum proteins were obtained from residual baseline serum and CSF proteins were obtained from patients participating in other research protocols who had consented to blood sampling. To determine the level of ^111In—Cl protein binding, 0.2, 0.5, or 1 μCi of ^111In—Cl was added to diluted CSF (0.125 or 0.5) or diluted serum protein (0.125 and 0.25) and incubated for 20 minutes. To determine the level of YCl3 protein binding, 0.2, 0.5, or 1 μCi of YCl3 was added to diluted CSF (0.063 or 0.5) or diluted serum protein (0.063 and 0.375), and incubated for 20 minutes. After incubation, free radiopharmaceuticals were separated from protein bound ^111In—Cl or YCl3 using Amicon Centrifree Micropartition filters in a single centrifugation step at 3000 g for 15 minutes according to manufacturer's instructions (Amicon, Beverly, Mass.). The percent binding of YCl3 or ^111In—Cl to the CSF or serum protein was then calculated. As shown in FIG. 6 and FIG. 7 respectively, both YCl3 and ^111In—Cl bind avidly to CSF and serum protein within the physiologic range (a dilution factor between 0.2 and 0.6) at all concentrations tested. At room temperature, both YCl3 and ^111In—Cl have greater than 95% binding to serum proteins.

[4] = intratracheal instillation (Hirano et al. 1990); cited from earlier work

For `[Cl][90Y]([Cl])[Cl]` [YCl3, Yttrium-90 chloride], the “formation of colloidal material in blood plasma” value [1] is given as “dose-dependent formation of colloidal material”, the primary target organs [1] is given as “liver and spleen” and the “retention time with free iron” value ([2]; admixture with FeCl3.6H2O, intramuscular or intratumoral injection) is given as “Increase in the retention time”. The “time over which cleared from the injection site” value ([2]; intramuscular injection in rats, without free iron, FIG. 15) was “approximately 20 hours”, the “retention in the injection site” value ([2]; intramuscular injection, without free iron) was “not locally sequestered” and the “binding to serum protein” value (serum proteins) was “bind avidly”. The skeletal distribution ([3]; estimated from the left femur (opposite to the injection site)) was “about 16%”, the “radiation uptake in the right thigh muscle” value ([3]; intramuscular injection in right thigh) was “high” and the “radiation uptake in right femur versus contralateral organ” value ([3]; intramuscular injection in right thigh, decreasing over time to) was 3 times higher. The “radiation uptake in right femur versus contralateral organ” value ([3]; intramuscular injection in right thigh, initial) was 6 times higher, the “human dosimetry estimate, kidney” value ([3]; intramuscular) was 1.47 cGy/mCi and the “human dosimetry estimate, red marrow” value ([3]; intramuscular) was 0.65 cGy/mCi. For the same compound, the “organs with the highest uptake” value ([3]; intravenous injection, 0.05 mCi in 0.1 ml saline) was “spleen, liver, and kidney”, the “human dosimetry estimate, kidney” value ([3]; intravenous) was 13.1 cGy/mCi and the “human dosimetry estimate, red marrow” value ([3]; intravenous) was 5.77 cGy/mCi. The “binding to CSF” value (CSF proteins) was “bind avidly” and the pulmonary retention half-life [4] was 169 days.
